Numbered stars: 1 amine (or outer) side, 2 acyl side, 3 side chain; on linkers, the order of the positions; unused ones are H or OH. Bridge positions count the residues as written; N and C are the ends. Square brackets hold non-standard residues; d marks the D form. Peptide text beside a SMILES is read from it. * marks the point of attachment. Phe(3-CH2NH2) = O=C([C@H](Cc1cccc(CN[*:3])c1)N[*:1])[*:2]; Phe(4-NHCONH2) = NC(=O)Nc1ccc(C[C@H](N)C(=O)O)cc1; Phe(3-CONH2) = NC(=O)c1cccc(C[C@H](N)C(=O)O)c1; Phe(2-CONH2) = NC(=O)c1ccccc1C[C@H](N)C(=O)O; Phe(4-CH2NH2) = NCc1ccc(C[C@H](N)C(=O)O)cc1; X5 = O=C([C@H](Cc1ccc(CO)cc1)N[*:1])[*:2]; X14 = CCN(CC)CCC[C@H](N[*:1])C(=O)[*:2]; Picolinoyl(5-F) = O=C(c1ccc(F)cn1)*; Orn(iPr) = CC(C)NCCC[C@H](N)C(=O)O; Benzoyl(4-F) = O=C(c1ccc(F)cc1)*; Oxazole2carbonyl = O=C(c1ncco1)*; 3Pal = N[C@@H](Cc1cccnc1)C(=O)O; X4 = O=C(c1ncccc1[N+](=O)[O-])*; Picolinoyl = O=C(c1ccccn1)*; ΔPro = O=C(O)[C@@H]1C=CCN1; Orn = NCCC[C@H](N)C(=O)O; Dap = NC[C@H](N)C(=O)O; X9 = Nc1cccnc1C(=O)*; X10 = O=C(c1nccs1)*
Tests used:
[1] = target: T1, hAM2 receptor (CALCRL:RAMP3) (Homo sapiens, UniProt O60896+Q16602); assay: AM2 receptor antagonist activity measured by cAMP assay (HTRF); assay type: cell-based; conditions: for Emax: % MPE: percent of the maximal possible effect, read-out: hAM2-R Efficacy Antag (%) Ave; for Emax / IC50: agonist human adrenomedullin; for IC50: GeneBLAzer CALCRL:RAMP3-CRE-bla Freestyle 293F cells, read-out: hAM2-R IC50 Ave; for selectivity ratio CGRP/AM2: selectivity ratio for hCGRP over hAM2, calculated from the IC50 values
T1 construct: expressed in transfected cells; host or cells: GeneBLAzer CALCRL:RAMP3-CRE-bla Freestyle 293F
Experimental: Antagonist activity for the adrenomedullin receptor AM2 was determined using the method described in Example 6 above, with the following modifications. Instead of GeneBLAzer® CALCRL:RAMP1-CRE-bla Freestyle™ 293F cells, GeneBLAzer® CALCRL:RAMP3-CRE-bla Freestyle™ 293F cells were used to test activity at hAM2 receptors. The agonist was human adrenomedullin, instead of α-CGRP.
In Table 5, the selectivity ratio for hCGRP over hAM2 is calculated as hCGRP-R IC50/hAM2-R IC50.

[2] = target: T2, hCGRP receptor (CALCRL:RAMP1) (Homo sapiens, UniProt O60894+Q16602); assay: CGRP receptor antagonist activity measured by cAMP assay (HTRF); assay type: cell-based; conditions: agonist human α-CGRP; for Emax: % MPE: percent of the maximal possible effect, read-out: hCGRP-R Efficacy Antag (%) Ave; for IC50: GeneBLAzer CALCRL:RAMP1-CRE-bla Freestyle 293F cells, 30 minutes, read-out: hCGRP-R IC50 Ave
T2 construct: host or cells: GeneBLAzer CALCRL:RAMP1-CRE-bla Freestyle 293F
T2 sequence (Q16602 23-461): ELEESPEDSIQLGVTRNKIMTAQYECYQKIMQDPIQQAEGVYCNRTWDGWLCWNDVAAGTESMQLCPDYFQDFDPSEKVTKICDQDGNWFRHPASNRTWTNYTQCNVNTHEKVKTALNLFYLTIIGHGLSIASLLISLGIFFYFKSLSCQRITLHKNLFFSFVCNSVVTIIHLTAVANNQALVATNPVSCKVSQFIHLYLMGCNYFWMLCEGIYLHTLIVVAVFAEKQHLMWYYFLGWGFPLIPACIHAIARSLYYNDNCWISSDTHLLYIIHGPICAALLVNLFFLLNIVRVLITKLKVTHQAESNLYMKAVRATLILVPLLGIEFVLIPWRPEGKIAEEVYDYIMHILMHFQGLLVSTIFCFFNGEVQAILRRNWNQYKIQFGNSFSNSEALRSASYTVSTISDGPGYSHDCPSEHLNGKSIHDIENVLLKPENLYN
T2 sequence (O60894 27-148): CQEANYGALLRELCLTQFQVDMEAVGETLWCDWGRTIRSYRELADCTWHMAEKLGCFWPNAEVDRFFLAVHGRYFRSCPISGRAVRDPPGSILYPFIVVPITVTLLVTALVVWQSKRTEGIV

T1 sequence (Q16602 23-461): as the sequence (Q16602 23-461) above
T1 sequence (O60896 24-148): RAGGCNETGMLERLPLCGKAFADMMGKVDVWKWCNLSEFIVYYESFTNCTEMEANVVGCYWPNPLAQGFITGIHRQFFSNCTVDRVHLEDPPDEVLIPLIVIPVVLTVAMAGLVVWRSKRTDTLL

| SMILES | Emax [1] [%] | IC50 [1] [nM] | selectivity ratio CGRP/AM2 [1] | Emax [2] [%] | IC50 [2] [nM] |
| --- | --- | --- | --- | --- | --- |
| CC(C)[C@@H]1NC(=O)[C@H](CC(=O)O)NC(=O)[C@H](CCCNC(=N)N)NC(=O)[C@@H](NC(=O)[C@H](Cc2ccc(O)cc2)NC(=O)[C@H](NC(=O)c2ncco2)C(C)C)CSSC[C@@H](C(=O)N[C@@H](Cc2cccnc2)C(N)=O)NC(=O)[C@H](Cc2cccnc2)NC(=O)[C@@H]2CCCN2C(=O)CNC1=O [Compound 11, Oxazole-2-carbonyl-D-Val-Tyr-c(Cys-Arg-Asp-Val-Gly-Pro-3Pal-Cys)-3Pal-NH2] (Oxazole2carbonyl-[dV]YCRDVGP[3Pal]C[3Pal]-NH2; disulfide 3-10) | 108 | 25 | 198 | 100 | 0.13 |
| CC(C)[C@@H]1NC(=O)[C@H](CC(=O)O)NC(=O)[C@H](CN)NC(=O)[C@@H](NC(=O)[C@H](Cc2ccc(O)cc2)NC(=O)[C@H](NC(=O)c2ccc(F)cc2)C(C)C)CSSC[C@@H](C(=O)N[C@@H](Cc2cccnc2)C(N)=O)NC(=O)[C@H](Cc2cccc(C(N)=O)c2)NC(=O)[C@@H]2CCCN2C(=O)CNC1=O [Compound 6, Bz(4-F)-D-Val-Tyr-c(Cys-Dpr-Asp-Val-Gly-Pro-Phe(3-Cbm)-Cys)-3Pal-NH2] ({Benzoyl(4-F)}-[dV]YC[Dap]DVGP[Phe(3-CONH2)]C[3Pal]-NH2; disulfide 3-10) | 113 | 101 | 612 | 100 | 0.17 |
| CCN(CC)CCC[C@@H]1NC(=O)[C@@H](NC(=O)[C@H](Cc2ccc(O)cc2)NC(=O)[C@H](NC(=O)c2ccccn2)C(C)C)CSSC[C@@H](C(=O)N[C@@H](Cc2cccnc2)C(N)=O)NC(=O)[C@H](Cc2ccccc2)NC(=O)[C@@H]2CCCN2C(=O)CNC(=O)[C@H](C(C)C)NC(=O)[C@H](CC(=O)O)NC1=O [Compound 24, Picolinoyl-D-Val-Tyr-c(Cys-Orn(Et2)-Asp-Val-Gly-Pro-Phe-Cys)-3Pal-NH2] (Picolinoyl-[dV]YC[X14]DVGPFC[3Pal]-NH2; disulfide 3-10) | 98 | 128 | 1213 | 100 | 0.11 |
| CC(C)NCCC[C@@H]1NC(=O)[C@@H](NC(=O)[C@H](Cc2ccccc2C(N)=O)NC(=O)[C@H](NC(=O)c2ncco2)C(C)C)CSSC[C@@H](C(=O)N[C@@H](Cc2cccnc2)C(N)=O)NC(=O)[C@H](Cc2ccc(NC(N)=O)cc2)NC(=O)[C@@H]2C=CCN2C(=O)CNC(=O)[C@H](C(C)C)NC(=O)[C@H](CC(=O)O)NC1=O [Compound 60, Oxazole-2-carbonyl-D-Val-Phe(2-Cbm)-c(Cys-Orn(iPr)-Asp-Val-Gly-Dhp-4Uph-Cys)-3Pal-NH2] (Oxazole2carbonyl-[dV][Phe(2-CONH2)]C[Orn(iPr)]DVG[ΔPro][Phe(4-NHCONH2)]C[3Pal]-NH2; disulfide 3-10) | 100 | 444 | 3759 | 100 | 0.12 |
| CC(C)[C@@H]1NC(=O)[C@H](CC(=O)O)NC(=O)[C@H](CCCNC(=N)N)NC(=O)[C@@H](NC(=O)[C@H](Cc2ccc(O)cc2)NC(=O)[C@H](NC(=O)c2ccc(F)cc2)C(C)C)CSSC[C@@H](C(=O)N[C@@H](Cc2cccnc2)C(N)=O)NC(=O)[C@H](Cc2ccc(CN)cc2)NC(=O)[C@@H]2CCCN2C(=O)CNC1=O [Compound 20, Bz(4-F)-D-Val-Tyr-c(Cys-Arg-Asp-Val-Gly-Pro-Phe(4-CH2NH2)-Cys)-3Pal-NH2] ({Benzoyl(4-F)}-[dV]YCRDVGP[Phe(4-CH2NH2)]C[3Pal]-NH2; disulfide 3-10) | 100 | 54 | 309 | 100 | 0.18 |
| CC(C)NCCC[C@@H]1NC(=O)[C@@H](NC(=O)[C@H](Cc2ccccc2C(N)=O)NC(=O)[C@H](NC(=O)c2ncco2)C(C)C)CSSC[C@@H](C(=O)N[C@@H](Cc2cccnc2)C(N)=O)NC(=O)[C@H](Cc2ccc(CO)cc2)NC(=O)[C@@H]2CCCN2C(=O)CNC(=O)[C@H](C(C)C)NC(=O)[C@H](CC(=O)O)NC1=O [Compound 64, Oxazole-2-carbonyl-D-Val-Phe(2-Cbm)-c(Cys-Orn(iPr)-Asp-Val-Gly-Pro-Phe(4-CH2OH)-Cys)-3Pal-NH2] (Oxazole2carbonyl-[dV][Phe(2-CONH2)]C[Orn(iPr)]DVGP[X5]C[3Pal]-NH2; disulfide 3-10) | 99 | 1250 | 10594 | 101 | 0.12 |
| CC(C)[C@@H]1NC(=O)[C@H](CC(=O)O)NC(=O)[C@H](CCCNC(=N)N)NC(=O)[C@@H](NC(=O)[C@H](Cc2ccc(O)cc2)NC(=O)[C@H](NC(=O)c2nccs2)C(C)C)CSSC[C@@H](C(=O)N[C@@H](Cc2cccnc2)C(N)=O)NC(=O)[C@H](Cc2ccccc2)NC(=O)[C@@H]2CCCN2C(=O)CNC1=O [Compound 33] (X10-[dV]YCRDVGPFC[3Pal]-NH2; disulfide 3-10) | 100 | 11 | 117 | 100 | 0.1 |
| CC(C)NCCC[C@@H]1NC(=O)[C@@H](NC(=O)[C@H](Cc2ccccc2C(N)=O)NC(=O)[C@H](NC(=O)c2ccc(F)cn2)C(C)C)CSSC[C@@H](C(=O)N[C@@H](Cc2cccnc2)C(N)=O)NC(=O)[C@H](Cc2cccnc2)NC(=O)[C@@H]2C=CCN2C(=O)CNC(=O)[C@H](C(C)C)NC(=O)[C@H](CC(=O)O)NC1=O [Compound 38, Picolinoyl(5-F)-D-Val-Phe(2-Cbm)-c(Cys-Orn(iPr)-Asp-Val-Gly-Dhp-3Pal-Cys)-3Pal-NH2] ({Picolinoyl(5-F)}-[dV][Phe(2-CONH2)]C[Orn(iPr)]DVG[ΔPro][3Pal]C[3Pal]-NH2; disulfide 3-10) | 101 | 87 | 1478 | 100 | 0.06 |
| CC(C)[C@@H]1NC(=O)[C@H](CC(=O)O)NC(=O)[C@H](CCCNC(=N)N)NC(=O)[C@@H](NC(=O)[C@H](Cc2cccc(CN)c2)NC(=O)[C@H](NC(=O)c2ncco2)C(C)C)CSSC[C@@H](C(=O)N[C@@H](Cc2cccnc2)C(N)=O)NC(=O)[C@H](Cc2cccc(C(N)=O)c2)NC(=O)[C@@H]2C=CCN2C(=O)CNC1=O [Compound 23, Oxazole-2-carbonyl-D-Val-Phe(3-CH2NH2)-c(Cys-Arg-Asp-Val-Gly-Dhp-Phe(3-Cbm)-Cys)-3Pal-NH2] (Oxazole2carbonyl-[dV][Phe(3-CH2NH2)]CRDVG[ΔPro][Phe(3-CONH2)]C[3Pal]-NH2; disulfide 3-10) | 100 | 21 | 400 | 100 | 0.05 |
| CC(C)[C@@H]1NC(=O)[C@H](CC(=O)O)NC(=O)[C@H](CCCNC(=N)N)NC(=O)[C@@H](NC(=O)[C@H](Cc2ccc(O)cc2)NC(=O)[C@H](NC(=O)c2ncccc2[N+](=O)[O-])C(C)C)CSSC[C@@H](C(=O)N[C@@H](Cc2cccnc2)C(N)=O)NC(=O)[C@H](Cc2ccccc2)NC(=O)[C@@H]2CCCN2C(=O)CNC1=O [Compound 50] (X4-[dV]YCRDVGPFC[3Pal]-NH2; disulfide 3-10) | 99 | 8.1 | 46 | 100 | 0.18 |
| CC(C)[C@@H]1NC(=O)[C@H](CC(=O)O)NC(=O)[C@H](CCCN)NC(=O)[C@@H](NC(=O)[C@H](Cc2ccc(O)cc2)NC(=O)[C@H](NC(=O)c2ccc(F)cn2)C(C)C)CSSC[C@@H](C(=O)N[C@@H](Cc2cccnc2)C(N)=O)NC(=O)[C@H](Cc2ccc(CO)cc2)NC(=O)[C@@H]2CCCN2C(=O)CNC1=O [Compound 56, Picolinoyl(5-F)-D-Val-Tyr-c(Cys-Orn-Asp-Val-Gly-Pro-Phe(4-CH2OH)-Cys)-3Pal-NH2] ({Picolinoyl(5-F)}-[dV]YC[Orn]DVGP[X5]C[3Pal]-NH2; disulfide 3-10) | 100 | 55 | 328 | 100 | 0.17 |
| CC(C)[C@@H]1NC(=O)[C@H](CC(=O)O)NC(=O)[C@H](CCCNC(=N)N)NC(=O)[C@@H](NC(=O)[C@H](Cc2ccc(O)cc2)NC(=O)[C@H](NC(=O)c2ccc(F)cc2)C(C)C)CSSC[C@@H](C(=O)N[C@@H](Cc2cccnc2)C(N)=O)NC(=O)[C@H](Cc2cccnc2)NC(=O)[C@@H]2CCCN2C(=O)CNC1=O [Compound 2, Bz(4-F)-D-Val-Tyr-c(Cys-Arg-Asp-Val-Gly-Pro-3Pal-Cys)-3Pal-NH2] ({Benzoyl(4-F)}-[dV]YCRDVGP[3Pal]C[3Pal]-NH2; disulfide 3-10) | 100 | 45 | 555 | 100 | 0.08 |
| CC(C)[C@@H]1NC(=O)[C@H](CC(=O)O)NC(=O)[C@H](CCCNC(=N)N)NC(=O)[C@@H](NC(=O)[C@H](Cc2ccc(O)cc2)NC(=O)[C@H](NC(=O)c2ncccc2N)C(C)C)CSSC[C@@H](C(=O)N[C@@H](Cc2cccnc2)C(N)=O)NC(=O)[C@H](Cc2ccccc2)NC(=O)[C@@H]2CCCN2C(=O)CNC1=O [Compound 36] (X9-[dV]YCRDVGPFC[3Pal]-NH2; disulfide 3-10) | 101 | 16 | 93 | 100 | 0.17 |
| CC(C)[C@@H]1NC(=O)[C@H](CC(=O)O)NC(=O)[C@H](CN)NC(=O)[C@@H](NC(=O)[C@H](Cc2ccc(O)cc2)NC(=O)[C@H](NC(=O)c2ccc(F)cc2)C(C)C)CSSC[C@@H](C(=O)N[C@@H](Cc2cccnc2)C(N)=O)NC(=O)[C@H](Cc2ccc(O)cc2)NC(=O)[C@@H]2CCCN2C(=O)CNC1=O [Compound 7, Bz(4-F)-D-Val-Tyr-c(Cys-Dpr-Asp-Val-Gly-Pro-Tyr-Cys)-3Pal-NH2] ({Benzoyl(4-F)}-[dV]YC[Dap]DVGPYC[3Pal]-NH2; disulfide 3-10) | 100 | 43 | 334 | 100 | 0.13 |

Reference: patent US9969775B2, “CGRP antagonist peptides” (Ferring B.V., priority 2015, dated 2018)
